Patent US20080319181A1, “Method of Making an Artificial Nuclease for Anti-viral, Anti-bacterial Applications” (The Government of the United States of America, as …, priority 2004, published 2008)

Legend:
Format in all cases: biochemical
[1] = Hydrolysis of BNPP by cobalt cyclen complexes (2nd order rate constants); conditions: 50° C., activation using sodium hydroxide
Protocol: The hydrolysis of BNPP by both Cocyc and 2 at 50° C., following activation using sodium hydroxide, has been measured (see Table 1). The second-order rate constants at pH 8.2 for both cyclen and 2 were similar at 14 and 12 M^−1 min^−1, respectively. The rate increased at pH 7.3 to a value of 19 M^−1 min^−1 for cyclen as compared to the published value of 2.8 M^−1 min^−1 at pH 7 (Chin, J.; Banaszczyk, M.; Jubian, V.; Zou, X. J. Am. Chem. Soc. 1989, 111, 186-190, the entire contents of which is incorporated herein by reference). The difference between the published value and ours can be attributed to different experimental conditions, such as buffer. pH, and the ratio of catalyst to substrate.
The much lower hydrolysis rate shown at pH 7.3 for Cocycmba is surprising. In order to determine whether the differences observed were mainly due to the carboxylic acid or to the presence of the benzene ring, the kinetics of 3 were measured at pH 7.3 and found to be 14 M^−1 min^−1, which is much closer to the Cocyc rate. Methylation of the benzoic acid takes away both the negative charge and an ability to effectively hydrogen bond. Therefore the results imply that the behavior of 2 can be mostly ascribed to the presence of the additional charge and the potential for hydrogen bonding. For example, the acid dissociation constants of cyclen of 5.6 and 8.0 mean that between pH 8.2 and 7.3 complexes 1 and 2 should convert from predominantly the dihydroxo to the aquo-hydroxo form (see FIG. 2). Since the benzoic acid is in the benzoate form (pKa 4.2), the increasing net positive charge at pH 7.3 of the coordination site may allow the benzoate to approach closer to Co(III) and interfere with the hydrolysis of BNPP.

pBluescript plasmid DNA = experiment: Hydrolysis (nicking) of plasmid DNA, agarose gel; conditions: pH 7; 5 mM cobalt complex; 0.1M MOPS; 37° C., approximately 16 hours; NIH Image
Protocol: DNA was digested with cocycmba and cocycmmb at three pH conditions (FIG. 3). Hydrolysis of the phosophodiester bonds of the double stranded (ds) plasmid DNA should lead to a conversion from the covalently closed supercoiled form to the nicked form of the plasmid. […] Plasmid DNA digested with a nicking enzyme (lane 1 FIG. 3) confirms that the slower moving band observed in digests with the cobalt catalysts is the nicked form of the plasmid.
Digests run overnight at 37° C. for approximately 16 hours on a 1.5% agarose gel. Controls with no cobalt catalyst were always run in parallel. b) 5 mM cocycmmb and 1.19 μg (0.168 mM bp) pBluescript plasmid DNA in 0.1M MOPS buffer at pH 7, 8, and 10 run under identical conditions. 1=Nickase+DNA, 2=DNA. 3=Cobalt complex+DNA at pH 7.4=pH 7 control, 5=Cobalt complex+DNA at pH 8, 6=pH 8 control, 7=Cobalt complex+DNA at pH 10, 8=pH 10 control Nickase reactions were performed at pH 7 using a 4 hour, 37° C. incubation of 1.18 μg pBluescript plasmid DNA.

Luciferase control-RNA = experiment: Western blot analysis of effect on protein translation (Rabbit Reticulocyte Lysate)
Protocol: Luciferase control-RNA (at a final concentration of 0.4 ug/mL) was incubated with increasing concentrations of Cocycmmb for 24 h in 1× HBS buffer (pH 7.4) for 24 h. After the incubation period, the RNA template was translated into luciferase protein using the Rabbit Reticulocyte Lysate translation system (Promega) according to the manufacturer's instructions. After translation, the reaction was analyzed by reducing SDS-PAGE and western blotting to monitor the presence of the 60 kDa luciferase protein product. An aliquot (3 uL) of the translation reaction was run on a 10% NuPAGE Bis-Tris polyacrylamide gel under reducing conditions and transferred to a solid support membrane (PVDF). The membrane was blocked for 1 h in TBS-T (TBS containing 0.05% Tween) and subsequently incubated for 1 h with a 1:2500 dilution of a streptavidin-alkaline phosphatase conjugate. Detection was achieved by exposing the membrane to Western Blue substrate for alkaline phosphatase.
RNA incubations were done as described above except that the Cocycmmb concentration was held constant at 5 mM (and, more recently, down to 0.05 mM) and incubated for varying amounts of time that spanned 24 h. SDS-PAGE and Western blotting were done as described above.

luciferase mRNA = experiment: Hydrolysis of RNA, denaturing agarose gel electrophoresis; conditions: 1 to 5 mM; 24 h at 25° C. in HBS (FIG. 5)
Protocol: The direct interaction of Co(III)-cycmmb with luciferase mRNA was analyzed by denaturing agarose gel electrophoresis. mRNA template (2 μg at a final concentration of 0.4 mg/mL) was incubated with varying concentrations (1 to 5 mM) of activated Co(III)-cycmmb for 24 h at 25° C. in 5 μL of HBS. Following the incubation, the reactions were analyzed by electrophoresis on a 2% denaturing agarose gel run for 4 h at 40 V. The gel was stained with RiboGreen (Molecular Probes), visualized by UV illumination, and images were quantified using Scion Image using the control incubation (no Co(III)-cycmmb) as a standard (see FIG. 5).

Compound | 2nd Order Rate Constants, hydrolysis of BNPP ([1]; pH 7.3) [M⁻¹ s⁻¹] | 2nd Order Rate Constants, hydrolysis of BNPP ([1]; pH 8.2) [M⁻¹ s⁻¹] | nicked product (pBluescript plasmid DNA) [%] | inhibition of protein production (Luciferase control-RNA; 0.25 mM, 10 minutes incubation time) | luciferase protein band in the Western blot (Luciferase control-RNA; as a function of Cocycmmb concentration and of time of contact with the RNA (FIG. 4)) | hydrolysis of RNA (luciferase mRNA)
COC(=O)c1ccc(CN2CCNCCNCCNCC2)cc1.COS(=O)(=O)[O-].[Cl-].[Cl-].[Co+3] [Cocycmmb, Dichloro{methyl 4-[(1,4,7,10-tetraazacyclododec-1-yl)methyl]-benzoate}cobalt (III) methylsulfate] | 0.233 | 0.183 | 43 | significant inhibition of protein production | absence of the protein band | hydrolyze RNA
dichloro(4-[1,4,7,10-tetraazacyclotetradec-1-yl]methylbennzoic acid)cobalt(III) chloride [Cocycmba] | 0.045 | 0.2 | 25 |  |  | 
